Data taken from patent US7892492B2, “Flow-through apparatus for microscopic investigation of dissolution of pharmaceutical solids” (University of Connecticut, priority 2006, dated 2011).

Assays:
Format in all cases: physicochemical
[1] = Rotating disk dissolution in HCl
Excerpt: Dissolution data are often collected in terms of amount dissolved curve vs. time. This is the case for rotating disk experiments due to the nature of the apparatus, i.e., batch operation. In rotating disk experiments, a change in solid form (such as salt form, polymorph form, amorphous to crystalline form) is indicated by a change in slope in a cumulative dissolution curve. A change of slope signifies a change in dissolution rate. […] In FIG. 20, the change in slope occurs at approximately 45 minutes, although it is difficult to determine an exact time due to some curvature in the plot.
These phenomena can be better understood by plotting a dissolution rate vs. time curve. For the rotating disk, data are still collected in a cumulative manner; however, further data treatment makes a change in slope easier to recognize. From a cumulative amount dissolved curve the slope between each set of adjacent points is taken and plotted against the midpoint of time. Using this method, it is easier to point out the time when the dissolution rate changes and determine the terminal dissolution rate. The resultant plot is a dissolution rate vs. time curve.

[2] = Dissolution in flow-through apparatus (flow cell), 10−4N NaOH; details: for Dissolution Rate: 10−4N NaOH, room temperature
Description: In order to test an apparatus associated with the present disclosure against a rotating disk apparatus, the dissolution rate of Triamterene free base was determined in dilute NaOH. The dissolution media was chosen to be 10−4N NaOH, since at alkaline pH, the Triamterene free base is not ionized. This condition makes theoretical comparisons of flux easier since it is not necessary to account for multiple species (ionized and unionized species) and Levich's mathematical solution for dissolution from a rotating disk transport is valid. Dissolution rate was also studied in an exemplary flow-through apparatus associated with the present disclosure. The dissolution medium (10−4N NaOH) was run continuously at 0.5, 1.5, 7.0, 20 mL/min. Triamterene free base was compressed into the insert by a mini-vise. Since a pressure reading is not possible on this vise, the mass of the drug in the insert was recorded and the porosity was calculated by using the dimensions of the insert, thickness of the drug compact and true density of the Triamterene free base as measured by pycnometry. Porosity of 10% or less was considered acceptable. Triamterene was detected via fluorescence with excitation at 370 nm and emission at 432 nm. The rotating disk results are shown in FIG. 29 for each rotation speed. As expected, an increase in rotation speed leads to an increase in dissolution rate. The dissolution rate for the entire experiment is represented by the slope of this line. Because this is the Triamterene free base dissolving in alkaline conditions, it is not expected to undergo a conversion, thus a constant dissolution rate vs. time curve is expected. However, interesting results can be seen in FIG. 30 showing dissolution rate vs. time data. […] The data from FIGS. 32 and 33 were used to estimate the dissolution rate at each volumetric flow rate for FIG. 34.

[3] = Rotating disk (Wood's die) dissolution, 10−4N NaOH; details: for Dissolution Rate: rotating disk, 900 ml 10−4N NaOH, room temperature
Description: In order to test an apparatus associated with the present disclosure against a rotating disk apparatus, the dissolution rate of Triamterene free base was determined in dilute NaOH. The dissolution media was chosen to be 10−4N NaOH, since at alkaline pH, the Triamterene free base is not ionized. This condition makes theoretical comparisons of flux easier since it is not necessary to account for multiple species (ionized and unionized species) and Levich's mathematical solution for dissolution from a rotating disk transport is valid. Rotating disk dissolution was run in a standard dissolution apparatus at 25, 80 and 200 rpm. The dissolution medium was 900 ml of 10−4 N NaOH at room temperature (since the flow cell has no temperature control at this time). The Wood's die apparatus has an exposed drug surface area of 0.5 cm^2. Approximately 125 mg of Triamterene free base was compressed into the die using a Carver Press. The compression conditions were 5000 lbs of force for 30 seconds. Triamterene was detected via fluorescence with excitation at 370 nm and emission at 432 nm. The rotating disk results are shown in FIG. 29 for each rotation speed. As expected, an increase in rotation speed leads to an increase in dissolution rate. The dissolution rate for the entire experiment is represented by the slope of this line. Because this is the Triamterene free base dissolving in alkaline conditions, it is not expected to undergo a conversion, thus a constant dissolution rate vs. time curve is expected. However, interesting results can be seen in FIG. 30 showing dissolution rate vs. time data. […] The data from FIGS. 32 and 33 were used to estimate the dissolution rate at each volumetric flow rate for FIG. 34.

[4] = Flow-through apparatus dissolution in HCl with stereomicroscope imaging; details: flow cell
Description: A flow-through apparatus associated with the present disclosure was tested using a model compound. Triamterene free base was chosen as the model compound as this is readily available and there is literature available on its various salt forms. An advantage of an apparatus associated with the present disclosure is that the user is able to observe the solid during dissolution. The following experimental results are preliminary data for a flow-through apparatus experiment (before the compression step was controlled). Approximately 20 mg of a sample drug was compressed in an insert for dissolution. Flow-through experiments were performed using 0.1N or 0.001N HCl as the dissolution medium pumped through a dissolution channel at 5 ml/min and 25 ml/min. Triamterene concentration in the effluent was measured by UV analysis at 370 nm. […] With the flow cell mounted in a jig so that it is tilted slightly, it is possible to capture images that show the face of the drug compact that is exposed to the fluid as well as the “control” dry surface face adjacent to the glass plate. Flow is from left to right in the following figures of Triamterene Free Base Dissolution in 0.1 N HCl at 25 ml/min: FIG. 23 at t=0; FIG. 24 at t=5 min; FIG. 25 at t=10 min; FIG. 26 at t=15 min; FIG. 27 at t=20 min; FIG. 28 at 25 minutes.

| Compound | Comparison of dissolution rate between HCl concentrations ([1]; rotating disk, 0.1, 0.01 or 0.001N HCl) | Rank order of dissolution rate with pH ([1]; rotating disk, chloride ion concentration normalized to 0.1N HCl) | Course of dissolution rate with time ([2]; 0.5-20 mL/min, 10−4N NaOH (FIG. 33)) | Dissolution Rate ([2]; flow rate 0.5 ml/min) | Dissolution Rate ([2]; flow rate 1.5 ml/min) | Dissolution Rate ([2]; flow rate 7.0 ml/min) | Dissolution Rate ([2]; flow rate 20 ml/min) | Time of change in slope of cumulative amount dissolved vs. time curve ([1]; rotating disk, 0.001N HCl, 50 rpm, preliminary data (FIG. 20)) | Course of dissolution rate with time ([3]; rotating disk, 25, 80 and 200 rpm, 10−4N NaOH (FIG. 30)) | Dissolution Rate ([3]; 25 rpm) | Dissolution Rate ([3]; 80 rpm) | Dissolution Rate ([3]; 200 rpm) | Observable changes of the solid in stereomicroscope images ([4]; 0.001 HCl, 5 mL/min) | Time after which the dissolution rate is relatively constant ([4]; 0.001 HCl, 5 mL/min (FIG. 22)) | Salt transformation observed during dissolution ([4]; 0.1N HCl, 25 ml/min) | Time until which the new solid grows before it is washed away with the fluid ([4]; 0.1N HCl, 25 ml/min) | Observation of drug compact during dissolution ([4]; 0.1N HCl, 25 ml/min, after five minutes (FIG. 24)) |
| --- | --- | --- | --- | --- | --- | --- | --- | --- | --- | --- | --- | --- | --- | --- | --- | --- | --- |
| Triamterene citrate | highest dissolution rate in 0.01N HCl | 0.1N>0.01N>0.001N HCl |  |  |  |  |  |  |  |  |  |  |  |  |  |  |  |
| Nc1nc(N)c2nc(-c3ccccc3)c(N)nc2n1 [Triamterene free base, Triamterene] |  |  | decrease of dissolution rate with time | 1.1 ug/cm^2min | 1.5 ug/cm^2min | 2.7 ug/cm^2min | 4.7 ug/cm^2min | approximately 45 minutes | initial decrease in the dissolution rate with time | 0.8 ug/cm^2min | 1.5 ug/cm^2min | 2.3 ug/cm^2min | did not reveal any observable changes | 25 min | significant hydrochloride salt growth on the drug surface | 15 min | nucleation and significant crystal growth has occurred |
